According to ChEMBL document CHEMBL4342426, “Structure-activity relationship of 4-azaindole-2-piperidine derivatives as agents against Trypanosoma cruzi” (Bioorg Med Chem Lett, 2020):
pIC50: −log10 of the molar value.

Experiments:
in vitro [1] = conditions: mouse, peritoneal macrophages
Description: (§1) Cytotoxicity against mouse peritoneal Macrophage cells assessed as reduction in cell viability incubated for 3 days by fluorimetry

Leishmania infantum = experiment: microbe, parasite or virus in culture; conditions: for pIC50: MHOM/MA(BE)/67/ITMAP263, 120 h; for IC90: MHOM/MA(BE)/67/ITMAP263, in Mus musculus, 120 h
Description: Antileishmanial activity against amastigote stage of Leishmania infantum MHOM/MA(BE)/67/ITMAP263 infected in mouse peritoneal macrophage assessed as parasite growth inhibition incubated for 5 days by Giemsa staining based assay

cells = conditions: Homo sapiens, MRC-5 SV2, 72 h
Description: (§2) Cytotoxicity against human MRC5 SV2 cells assessed as reduction in cell viability incubated for 3 days by fluorimetry

Trypanosoma cruzi = experiment: microbe, parasite or virus in culture; conditions: Tulahuen CL2, MRC-5 SV2, 168 h
Description: Antitrypanosomal activity against Trypanosoma cruzi Tulahuen CL2 amastigotes infected in human MRC5 SV2 cells incubated for 7 days by chlorophenol red beta-D-galactopyranoside substrate based spectrophotometric assay

physchem = conditions: buffer, pH 7.4
Description: Lipophilicity, logD of compound at pH 7.4 by HPLC analysis

in vitro [2] = conditions: mouse, liver microsomes
Description: Metabolic stability in mouse liver microsomes assessed as intrinsic clearance at 0.5 uM incubated for 30 mins by LC-MS/MS analysis

Trypanosoma brucei = experiment: microbe, parasite or virus in culture; conditions: Squib 427, 72 h
Description: Antitrypanosomal activity against Trypanosoma brucei Squib 427 assessed as reduction in parasite growth incubated for 72 hrs by resazurin dye based fluorimetric analysis

[3] = test system: Trypanosoma brucei rhodesiense; experiment: microbe, parasite or virus in culture; conditions: STIB900, 72 h
Description: Antiprotozoal activity against Trypanosoma brucei rhodesiense STIB900 trypomastigotes incubated for 72 hrs by resazurin dye based fluorimetric analysis

in vitro [4] = conditions: human, MRC5 SV2 cells
Description: as §2

in vitro [5] = conditions: human, liver microsomes
Description: Metabolic stability in human liver microsomes assessed as intrinsic clearance at 0.5 uM incubated for 30 mins by LC-MS/MS analysis

Macrophage = experiment: cells; conditions: Mus musculus, 72 h
Description: as §1

in vitro [6] = conditions: PAMPA
Description: Effective permeability of compound by PAMPA assay

Structure (SMILES) | IC90 at 72 h (in vitro [1]) [µM] | pIC50 (Leishmania infantum) | IC90 (Leishmania infantum) [µM] | logD (physchem) | CLint scaled at 0.5 h, 0.5 µM (in vitro [2]) [mL/min/kg] | microsomal CLint at 0.5 h, 0.5 µM (in vitro [2]) [µL/min/mg] | pIC50 (Trypanosoma brucei) | IC90 (Trypanosoma brucei) [µM] | pIC50 [3] | IC90 [3] [µM] | IC90 at 72 h (in vitro [4]) [µM] | CLint scaled at 0.5 h, 0.5 µM (in vitro [5]) [mL/min/kg] | microsomal CLint at 0.5 h, 0.5 µM (in vitro [5]) [µL/min/mg] | Papp (in vitro [6]) [×10⁻⁶ cm/s] | pIC50 (cells) | pIC50 (Trypanosoma cruzi) | IC90 (Trypanosoma cruzi) [µM] | pIC50 (Macrophage) | CC50 at 72 h (in vitro [4]) [µM]
O=C(CCc1nc2ncc(Cl)cc2[nH]1)Nc1ccccc1 | 64 | 4.19 | 64 | 2.81 | 516 | 120 | 4.19 | 64 | 4.19 | 64 | 64 | < 33.3 | < 23 | 5.97 | 4.19 | 4.19 | 64 | 4.19 | 
O=C(c1ccccc1)N1CCC(O)(c2cc3ncccc3[nH]2)CC1 | 64 | 4.19 | 64 | 2.13 | 956 | 193 | 4.19 | 64 | 4.19 | 64 | 64 | 52 | 31 |  | 4.19 | 4.19 | 64 | 4.19 | 
O=C(c1cncnc1)N1CCCC(c2cc3ncccc3[nH]2)C1 (stereo unspecified) | 64 | 4.19 | 64 | 1.24 |  |  | 4.19 | 64 | 4.19 | 64 | 64 | < 31.3 | < 23 |  | 4.19 | 4.19 | 64 | 4.19 | 
O=C(Cn1ccnc1[N+](=O)[O-])NCc1ccccc1 [BENZNIDAZOLE] |  |  |  |  |  |  |  |  |  |  |  |  |  |  |  | 5.30 to 5.70 |  |  | 
CC(=O)O[C@H]1C(=O)[C@@]2(C)[C@H]([C@H](OC(=O)c3ccccc3)[C@]3(O)C[C@H](OC(=O)[C@H](O)[C@@H](NC(=O)c4ccccc4)c4ccccc4)C(C)=C1C3(C)C)[C@]1(OC(C)=O)CO[C@@H]1C[C@@H]2O [PACLITAXEL] |  |  |  |  |  |  |  |  |  |  |  |  |  |  |  |  |  |  | < 0.01
CC[C@]1(O)C[C@@H]2CN(CCc3c([nH]c4ccccc34)[C@@](C(=O)OC)(c3cc4c(cc3OC)N(C)[C@H]3[C@@](O)(C(=O)OC)[C@H](OC(C)=O)[C@]5(CC)C=CCN6CC[C@]43[C@@H]65)C2)C1 [VINBLASTINE] |  |  |  |  |  |  |  |  |  |  |  |  |  |  |  |  |  |  | < 0.01

The remaining molecules from weak to strong by pIC50 (Leishmania infantum), led by results:

IC90 at 72 h (in vitro [1]) [µM] | pIC50 (Leishmania infantum) | IC90 (Leishmania infantum) [µM] | logD (physchem) | CLint scaled at 0.5 h, 0.5 µM (in vitro [2]) [mL/min/kg] | microsomal CLint at 0.5 h, 0.5 µM (in vitro [2]) [µL/min/mg] | pIC50 (Trypanosoma brucei) | IC90 (Trypanosoma brucei) [µM] | pIC50 [3] | IC90 [3] [µM] | IC90 at 72 h (in vitro [4]) [µM] | CLint scaled at 0.5 h, 0.5 µM (in vitro [5]) [mL/min/kg] | microsomal CLint at 0.5 h, 0.5 µM (in vitro [5]) [µL/min/mg] | Papp (in vitro [6]) [×10⁻⁶ cm/s] | Structure (SMILES) | pIC50 (cells) | pIC50 (Trypanosoma cruzi) | IC90 (Trypanosoma cruzi) [µM] | pIC50 (Macrophage) | CC50 at 72 h (in vitro [4]) [µM]
64 | 4.19 | 64 | 2.46 | 4900 | 980 | 4.19 | 64 | 4.19 | 64 | 64 | 40.7 | 24.1 |  | CC(C)c1cc(C(=O)N2CCC(O)(c3cc4ncccc4[nH]3)CC2)on1 | 4.19 | 4.34 | 64 | 4.19 | 
64 | 4.19 | 64 | 3.24 | > 963 | 301 | 4.19 | 64 | 4.19 | 64 | 64 | ≥ 25 | < 23 | 6.13 | O=C(CCc1nc2ncc(Cl)cc2[nH]1)Nc1cccc(F)c1 | 4.19 | 4.19 | 64 | 4.19 | 
64 | 4.19 | 64 |  |  |  | 4.19 | 64 | 4.19 | 64 | 64 |  |  |  | CCCC(=O)N1CCCC(O)(c2cc3ncccc3[nH]2)C1 (stereo unspecified) | 4.19 | 4.19 | 64 | 4.19 | 
64 | 4.19 | 64 | 2.13 | 1920 | 434 | 4.19 | 64 | 4.19 | 64 | 64 | 143 | 94.4 |  | OC1(c2cc3ncccc3[nH]2)CCN(Cc2ccccc2)CC1 | 4.19 | 4.19 | 64 | 4.19 | 
64 | 4.19 | 64 | 1.75 |  |  | 4.19 | 64 | 4.19 | 64 | 64 |  |  | 2.72 | O=C(CCc1nc2ncccc2[nH]1)Nc1ccccc1 | 4.19 | 4.19 | 64 | 4.19 | 
